The source of these data is publication PMC11528067, “Structural Bases of Dihydroxy Acid Dehydratase Inhibition and Biodesign for Self-Resistance” (Biodesign Research, 2024).

“And” between values parts separate entries of the source, which are not always exact repeats. Equal values may be shown once.

In test [1] the target is T1, AthDHAD (Arabidopsis thaliana, UniProt Q9LIR4).
T1 construct: made in house; host or cells: E. coli BL21(DE3)
T1 sequence (Q9LIR4 35-608): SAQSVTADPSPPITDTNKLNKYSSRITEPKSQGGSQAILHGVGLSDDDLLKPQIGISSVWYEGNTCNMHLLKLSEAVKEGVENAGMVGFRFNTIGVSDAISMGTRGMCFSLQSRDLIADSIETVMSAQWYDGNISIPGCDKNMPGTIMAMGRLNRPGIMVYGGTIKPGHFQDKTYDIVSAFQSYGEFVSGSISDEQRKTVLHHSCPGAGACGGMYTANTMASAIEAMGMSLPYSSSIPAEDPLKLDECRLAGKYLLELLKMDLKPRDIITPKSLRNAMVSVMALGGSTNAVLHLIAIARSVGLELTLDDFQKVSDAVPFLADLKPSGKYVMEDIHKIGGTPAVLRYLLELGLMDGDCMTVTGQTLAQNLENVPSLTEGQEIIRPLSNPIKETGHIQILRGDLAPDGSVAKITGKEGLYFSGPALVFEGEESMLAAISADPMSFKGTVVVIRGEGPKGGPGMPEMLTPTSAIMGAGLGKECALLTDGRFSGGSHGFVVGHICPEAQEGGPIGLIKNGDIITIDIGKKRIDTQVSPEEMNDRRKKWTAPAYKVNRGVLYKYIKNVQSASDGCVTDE
As to the kind of experiment: In vitro activity and AA inhibition assay of AthDHAD. The note with it: AthDHAD wild type. It counts as biochemical, A. thaliana. The method, then:
(§1) In vitro activity assays were carried out in 25 μl of reaction mixture containing A10 buffer without NaCl. The Michaelis–Menten constants (kcat, KM) for each enzyme were calculated by fitting the following formula to the observed reaction rate. V=VmaxS/KM+S Vmax=kcatE0
(§2) The inhibition percentages of AA on AthDHADs were determined using in vitro biochemical assays and calculated with the following equation:
(§3) Inhibition percentage = 100 − 100 × (initial reaction rate with AA/initial reaction rate without AA)
(§4) The inhibition assays were conducted with either 10 mM (±)-sodium-α,β-dihydroxyisovalerate (DHI) or 10 mM (±)-sodium-α,β-dihydroxymethylvalerate hydrate (DHMV), along with 0.5 μM of purified AthDHAD enzyme or its mutants. The reaction was initiated by adding the corresponding enzymes, followed by a 20-min incubation at 28°C. To halt the reactions, an equal volume of acetonitrile was introduced. Subsequently, approximately 0.04 volumes of 100 mM phenylhydrazine were added to facilitate the derivatization of the product, either 2-keto-isovalerate or 2-keto-3-methylvalerate, at room temperature for 30 min. For HPLC analysis, 10 μl of the reaction mixture was utilized.

Another test addresses T2, AthDHAD-V497I (Arabidopsis thaliana, UniProt Q9LIR4, V531I).
T2 construct: made in house; host or cells: E. coli BL21(DE3)
Description: In vitro activity and AA inhibition assay of AthDHAD mutant V497I. It counts as biochemical, A. thaliana. The note with it: DHI as substrate (10 mM), 0.5 μM enzyme. The procedure: as §1, §2, §3, §4

The target of a further test is T3, AthDHAD-V178W (Arabidopsis thaliana, UniProt Q9LIR4, V212W).
T3 construct: made in house; host or cells: E. coli BL21(DE3)
T3 sequence (Q9LIR4 35-608 V212W): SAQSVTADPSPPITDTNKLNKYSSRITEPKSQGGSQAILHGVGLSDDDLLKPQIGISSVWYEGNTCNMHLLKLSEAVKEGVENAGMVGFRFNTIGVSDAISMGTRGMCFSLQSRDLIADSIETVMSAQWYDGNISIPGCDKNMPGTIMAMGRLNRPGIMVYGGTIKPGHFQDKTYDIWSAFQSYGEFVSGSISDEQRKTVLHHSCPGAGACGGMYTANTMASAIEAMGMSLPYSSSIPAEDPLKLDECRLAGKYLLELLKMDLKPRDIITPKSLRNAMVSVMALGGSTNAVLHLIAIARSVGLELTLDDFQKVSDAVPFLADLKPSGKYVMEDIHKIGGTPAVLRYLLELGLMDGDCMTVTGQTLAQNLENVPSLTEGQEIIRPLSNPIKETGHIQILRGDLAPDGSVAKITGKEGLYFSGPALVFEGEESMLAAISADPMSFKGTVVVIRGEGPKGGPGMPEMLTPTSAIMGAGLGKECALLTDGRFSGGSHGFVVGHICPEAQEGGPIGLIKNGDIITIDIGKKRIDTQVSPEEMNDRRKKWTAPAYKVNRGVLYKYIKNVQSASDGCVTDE
As to the kind of experiment: In vitro activity and AA inhibition assay of AthDHAD mutant V178W. It counts as biochemical, A. thaliana. The note with it: DHI as substrate (10 mM), 0.5 μM enzyme. The procedure: as §1, §2, §3, §4

The target of the next test is T4, AthDHAD-V178I (Arabidopsis thaliana, UniProt Q9LIR4, V212I).
T4 construct: made in house; host or cells: E. coli BL21(DE3)
T4 sequence (Q9LIR4 35-608 V212I): as the sequence (Q9LIR4 35-608 V212W) above, with W178I counted along it
As to the kind of experiment: In vitro activity and AA inhibition assay of AthDHAD mutant V178I. The class given is biochemical, A. thaliana. As to conditions: DHI as substrate (10 mM), 0.5 μM enzyme. The procedure: as §1, §2, §3, §4

A further test concerns the target T5, AthDHAD-V178L-V497L (Arabidopsis thaliana, UniProt Q9LIR4, V212L/V531L).
T5 construct: made in house; host or cells: E. coli BL21(DE3)
As to the kind of experiment: In vitro activity and AA inhibition assay of AthDHAD double mutant V178L/V497L. It counts as biochemical, A. thaliana. The method, then:
as §1, §2, §3, §4

In the next test the target is T6, AthDHAD-V178L (Arabidopsis thaliana, UniProt Q9LIR4, V212L).
T6 construct: made in house; host or cells: E. coli BL21(DE3)
T6 sequence (Q9LIR4 35-608 V212L): as the sequence (Q9LIR4 35-608 V212W) above, with W178L counted along it
As to the kind of experiment: In vitro activity and AA inhibition assay of AthDHAD mutant V178L. As to conditions: DHI as substrate (10 mM), 0.5 μM enzyme. It counts as biochemical, A. thaliana. The procedure: as §1, §2, §3, §4

A further test concerns the target T7, AthDHAD-V497F (Arabidopsis thaliana, UniProt Q9LIR4, V531F).
T7 construct: made in house; host or cells: E. coli BL21(DE3)
Description: In vitro activity and AA inhibition assay of AthDHAD mutant V497F. It counts as biochemical, A. thaliana. The note with it: DHI as substrate (10 mM), 0.5 μM enzyme. The method, then: as §1, §2, §3, §4

In a further test the target is T8, AthDHAD-V178F (Arabidopsis thaliana, UniProt Q9LIR4, V212F).
T8 construct: made in house; host or cells: E. coli BL21(DE3)
T8 sequence (Q9LIR4 35-608 V212F): as the sequence (Q9LIR4 35-608 V212W) above, with W178F counted along it
Description: In vitro activity and AA inhibition assay of AthDHAD mutant V178F. It counts as biochemical, A. thaliana. As to conditions: DHI as substrate (10 mM), 0.5 μM enzyme. The procedure:
as §1, §2, §3, §4

The target in test [2] is T1, AthDHAD. The note with it: cited from earlier work.
A further test concerns the target T9, AthDHAD-V496I (Arabidopsis thaliana, UniProt Q9LIR4, V530I).
T9 construct: made in house; host or cells: E. coli BL21(DE3)
As to the kind of experiment: In vitro activity and AA inhibition assay of AthDHAD mutant V496I. It counts as biochemical, A. thaliana. The method, then:
as §1, §2, §3, §4

The next test has as its system AstD. As to conditions: cited from earlier work.
The target in a further test is T10, AthDHAD-I177L-V497L (Arabidopsis thaliana, UniProt Q9LIR4, I211L/V531L).
T10 construct: made in house; host or cells: E. coli BL21(DE3)
T10 sequence (Q9LIR4 35-608 I211L/V531L): as the sequence (Q9LIR4 35-608 V212W) above, with I177L, W178V, V497L counted along it
Description: In vitro activity and AA inhibition assay of AthDHAD double mutant I177L/V497L. The class given is biochemical, A. thaliana. The procedure:
as §1, §2, §3, §4

A further test has as its target T11, AthDHAD-I177L-V496L (Arabidopsis thaliana, UniProt Q9LIR4, I211L/V530L).
T11 construct: made in house; host or cells: E. coli BL21(DE3)
Description: In vitro activity and AA inhibition assay of AthDHAD double mutant I177L/V496L. The class given is biochemical, A. thaliana. The method, then: as §1, §2, §3, §4

The subject of the next test is A. thaliana. Also noted: method as in PMID 29995859. As to conditions: A. thaliana as a model plant organism; cited from earlier work.
For another test, the target named is T12, AthDHAD-V497L (Arabidopsis thaliana, UniProt Q9LIR4, V531L).
T12 construct: made in house; host or cells: E. coli BL21(DE3)
T12 sequence (Q9LIR4 35-608 V531L): as the sequence (Q9LIR4 35-608 V212W) above, with W178V, V497L counted along it
As to the kind of experiment: In vitro activity and AA inhibition assay of AthDHAD mutant V497L. It counts as biochemical, A. thaliana. The procedure:
as §1, §2, §3, §4

A further test deals with AteDHAD. Also noted: method as in PMID 29995859. The note with it: housekeeping DHAD from A. terreus (XP_001208445.1); cited from earlier work.
Another test addresses T13, AthDHAD-I177L (Arabidopsis thaliana, UniProt Q9LIR4, I211L).
T13 construct: made in house; host or cells: E. coli BL21(DE3)
As to the kind of experiment: In vitro activity and AA inhibition assay of AthDHAD mutant I177L. It counts as biochemical, A. thaliana. The method, then:
as §1, §2, §3, §4

Test [3] relates to A. thaliana transgenic lines with mutant AthDHAD (V178L and V496L). As to the kind of experiment: Growth inhibition of AA on transgenic A. thaliana with mutant AthDHAD (V178L and V496L). The note with it: 100 μM AA on Murashige and Skoog medium, day 7; V178L and V496L lines compared to line expressing AstD. The class given is in vivo. The source says: The gene block containing DHAD variants, and the 2XFLAG-tag was synthesized and then cloned into modified pEG302 vector using Gateway LR Clonase II Enzyme Mix (Thermo Fisher Scientific). Ubiquitin-10 promoter was used to drive the expression of DHAD variants. The construct was electrotransformed into Agrobacterium tumefaciens strain Agl0 and then transformed into A. thaliana rdr6-15 in which the transgene silencing pathway is blocked. Positive transgenic plants were selected using the hygromycin B and were tested for survival in the presence of AA.
A. thaliana seeds were sterilized with 70% ethanol and sown on Murashige and Skoog medium supplemented with either ethanol control or 100 μM AA. Photos were taken, and fresh weights were measured at day 7.

The subject of test [4] is Transgenic A. thaliana expressing AstD. Also noted: method as in PMID 29995859. The note with it: cited from earlier work.
The target of the next test is T14, AthDHAD-V496F (Arabidopsis thaliana, UniProt Q9LIR4, V530F).
T14 construct: made in house; host or cells: E. coli BL21(DE3)
T14 sequence (Q9LIR4 35-608 V530F): as the sequence (Q9LIR4 35-608 V212W) above, with W178V, V496F counted along it
As to the kind of experiment: In vitro activity and AA inhibition assay of AthDHAD mutant V496F. The class given is biochemical, A. thaliana. The method, then:
as §1, §2, §3, §4

The next test has as its target T15, AthDHAD-I177F (Arabidopsis thaliana, UniProt Q9LIR4, I211F).
T15 construct: made in house; host or cells: E. coli BL21(DE3)
Description: In vitro activity and AA inhibition assay of AthDHAD mutant I177F. The class given is biochemical, A. thaliana. The procedure: as §1, §2, §3, §4

In another test the target is T16, AthDHAD-V496L (Arabidopsis thaliana, UniProt Q9LIR4, V530L).
T16 construct: made in house; host or cells: E. coli BL21(DE3)
T16 sequence (Q9LIR4 35-608 V530L): as the sequence (Q9LIR4 35-608 V212W) above, with W178V, V496L counted along it
As to the kind of experiment: In vitro activity and AA inhibition assay of AthDHAD mutant V496L. The class given is biochemical, A. thaliana. As to conditions: DHI as substrate (10 mM), 0.5 μM enzyme. The method, then: as §1, §2, §3, §4

T2 sequence (Q9LIR4 35-608 V531I): as the sequence (Q9LIR4 35-608 V212W) above, with W178V, V497I counted along it
T7 sequence (Q9LIR4 35-608 V531F): as the sequence (Q9LIR4 35-608 V212W) above, with W178V, V497F counted along it
T13 sequence (Q9LIR4 35-608 I211L): as the sequence (Q9LIR4 35-608 V212W) above, with I177L, W178V counted along it
T11 sequence (Q9LIR4 35-608 I211L/V530L): as the sequence (Q9LIR4 35-608 V212W) above, with I177L, W178V, V496L counted along it
T15 sequence (Q9LIR4 35-608 I211F): as the sequence (Q9LIR4 35-608 V212W) above, with I177F, W178V counted along it
T5 sequence (Q9LIR4 35-608 V212L/V531L): as the sequence (Q9LIR4 35-608 V212W) above, with W178L, V497L counted along it
T9 sequence (Q9LIR4 35-608 V530I): as the sequence (Q9LIR4 35-608 V212W) above, with W178V, V496I counted along it

What is called Km is the concentration of substrate that gives half-maximal velocity. The term kcat denotes the maximal rate divided by the concentration of active sites. Take `CC[C@@](C)(O)[C@@H](O)C(=O)O` (racemic) [DHMV, (±)-sodium-α,β-dihydroxymethylvalerate hydrate, reference compound]: on AthDHAD [1] (substrate DHMV), the Km came to 4 ± 0.45 mM and the kcat came to 6.50 ± 0.32 s⁻¹.

By IC50 is commonly meant the midpoint of a concentration-inhibition curve. Higher therefore signals a need for much substance. What is called Ki is a dissociation constant, usually derived from enzyme kinetics or from competition with a known ligand. Consider `CC(C)=C1CCC23COC(C2)C(O)(C(=O)O)CCC13` (centres unmarked) [AA, aspterric acid], for which the IC50 is 73.3 nM and 73 nM against AthDHAD-V497I; 2340 nM at AthDHAD-V178W; 430 nM and 431 nM at AthDHAD-V178I; 396 ± 11 nM against AthDHAD-V178L-V497L; 970 nM and 974 nM against AthDHAD-V178L; 1250 nM against AthDHAD-V497F. The IC50 is 6 µM and 5.99 µM at AthDHAD-V178F; 1140 ± 52 nM at AthDHAD-V496I; 28 nM against AthDHAD-I177L-V497L; 309 ± 74 nM at AthDHAD-I177L-V496L; 250 nM and 249 nM at AthDHAD [1] (DHI as substrate (10 mM), 0.5 μM enzyme); 59 nM against AthDHAD-V497L. Moreover, the IC50 is 50 ± 1 nM against AthDHAD-I177L; 2940 nM at AthDHAD-V496F; 37 ± 8.77 µM against AthDHAD-I177F; 820 nM and 824 nM against AthDHAD-V496L. The Ki on AthDHAD [2] (binding of AA to AthDHAD as a competitive inhibitor) is approximately 300 nM. The mode of inhibition result on AthDHAD [2] (housekeeping DHAD from A. thaliana (AT3G23940)) and with AteDHAD was “competitive inhibitor” in each case. The “AA resistance observed in AstD” value in the test with AstD (reported) is listed as “over 8 mM”. Also, the “sensitivity of AstD to AA” value in the test on AstD (within the solubility limit (8 mM)) is recorded as “completely insensitive”. In the test on A. thaliana, the “herbicidal effect in spray experiments” value was “effective as an herbicide”. Further, the “growth of transgenic plants in the presence of AA” value in [3] is reported as “not able to rescue the growth of the plants”. Also, the “resistance of transgenic plants to AA” value in test [4] was “strong resistance”.
